Assay results: US20190202774A1, “BIARYL COMPOUNDS AS ANTIMICROBIAL AND CHEMOTHERAPEUTIC AGENTS” (priority 2015, published 2019)
Values after ≈ are worked out from the molar mass of the structure shown. “Also recorded” adds a separate entry of the source. Structures can show the parent of a compound that is named as a salt.

Tests used:
[1] = tested on: MRSA strain USA300; assay: DiSC3(5) membrane permeabilization; format: cell-based, Staphylococcus aureus
Protocol: Biaryl compounds and their analogues have been reported to be membrane active agents (Isnansetyo and Kamei, 2003 and Kamei et al., 2003). An experiment was performed to verify the membrane permeabilization activity of biaryl compound. C58 using a fluorescent dye, 3,3′-Dipropylthiacarbocyanine iodide (DiSC3(5)). The fluorescence signal from DiSC3(5) is in a quenched state when it interacts with the hydrophobic region of the cell membrane. Upon disruption of the membrane, DiSC3(5) is released and regains its fluorescent activity, which is measured as a fluorescence signal (RFU).

[2] = tested on: H2122; assay: Lung cancer cell survival, H2122; format: cell-based; conditions: 72 hour incubation, non-linear curve fit
Protocol: (§1) The IC50 values generated using a non-linear curve fit with lung cancer cell lines, A549, H460, H2122, and H2073 are listed in Table 10. Experiments were performed using C58, C58-2, C59, C59-2, C119, and acetylated C119 (C119-2). […] Additionally, these concentrations are clinically achievable for treatment of lung cancer and a detailed structure activity relationship experiments needs to be performed to identify promising anticancer candidates.

[3] = tested on: erythrocytes from sheep blood; assay: Hemolytic activity; conditions: sheep
Protocol: Toxicity of biaryl compounds was tested against erythrocytes as well as eukaryotic epithelial, dermal, and macrophage cell lines in vitro.
Toxicity of lead antimicrobial candidates was tested against erythrocytes, as well as eukaryotic epithelial and dermal cell lines in vitro.

[4] = tested on: 38 MRSA strains; assay: microbe, parasite or virus in culture; conditions: Staphylococcus aureus; for MBC: read-out: MBC90
[5] = tested on: H460; assay: Lung cancer cell survival, H460; format: cell-based; conditions: 72 hour incubation, non-linear curve fit
Protocol: as §1

[6] = tested on: MRSA SA LL06; assay: Growth curves (OD650, 18-h), MRSA SA LL06; format: cell-based, Staphylococcus aureus; conditions: SA LL06, 18-h
[7] = tested on: A549; assay: Lung cancer cell survival, A549; format: cell-based; conditions: 72 hour incubation, non-linear curve fit
Protocol: as §1

[8] = tested on: MRSA strains SAD05 and 0632 in a biofilm; assay: MBEC High-throughput biofilm assay; format: cell-based, Staphylococcus aureus
[9] = tested on: H2073; assay: Lung cancer cell survival, H2073; format: cell-based; conditions: 72 hour incubation, non-linear curve fit
Protocol: as §1

[10] = tested on: R. equi strains 701+, 701−, 703, and 5331; assay: MIC/MBC broth microdilution against R. equi; format: cell-based, Rhodococcus equi
[11] = tested on: eukaryotic cell lines tested; assay: ALAMARBLUE Cell Viability Assay, LD50 quoted in text (cell line not given); conditions: 24 hours; cell line not named in the sentence (Table 3 not given)
Protocol: (§2) Finally, toxicity of biaryl compounds was tested against human lung airway epithelial cells (16HBE), human dermal fibroblasts, and J774.A1 murine macrophages using an ALAMARBLUE® Cell Viability Assay. Biaryl compounds, C58, acetylated C58 (C58-2), C59, C59-2, C59Na, and C59Li were incubated with cells for 24 hours and an ALAMARBLUE® Cell Viability Assay was performed to determine cell viability relative to untreated controls (FIGS. 13A-13C). Cell viability curves were analyzed using non-linear curve fit to yield the inhibitory concentration at median cell survival (LD50) for all cell lines (Table 3).

[12] = tested on: 21 S. epidermidis strains; assay: MIC90/MBC90 broth microdilution against 21 S. epidermidis strains; format: cell-based, Staphylococcus epidermidis; conditions: Staphylococcus epidermidis; for MBC: read-out: MBC90
Description: We are currently in the process of evaluating the MICs and MBCs for 5-32.

[13] = tested on: E. faecalis strains 49532 and 51575; assay: MIC/MBC broth microdilution against E. faecalis; format: cell-based, Enterococcus faecalis
[14] = tested on: MRSA strain USA 300; assay: Growth curves (OD650, 18-h), MRSA USA 300; format: cell-based, Staphylococcus aureus; conditions: stationary phase USA 300, 18-h, compared with non-treated control
Protocol: The rate of bacterial growth in presence of antimicrobial candidates, C58, C59, C59Na, or 4-76, was performed using stationary phase MRSA, USA 300 and SA LL06, or S. epidermidis, M0881, and compared with SoC antimicrobial, vancomycin. In addition, these growth rates were compared with the kill kinetics described earlier (FIGS. 4 & 5). […] A reduction in bacterial growth rate, represented by a lower absorbance at OD650, can be observed with C59 and C59Na at concentrations as low as 0.125×MIC compared with non-treated control. […] However, in the kill kinetics experiments, vancomycin fails to eradicate stationary phase MRSA at concentrations up to 2×MIC. This anomaly can be explained by the different experimental conditions between the kill kinetics and growth curve experiments; bacterial samples are grown with constant shaking on an orbital shaker for a kill kinetics experiment but not for a growth curve experiment.
Finally, the antimicrobial efficacy of enantiomers of compound 4-76 were evaluated against log-phase MRSA strain USA 300, as described earlier.

[15] = tested on: MRSA strains USA300, 0606, 0608, 0634, 0641, and 0646; assay: MIC/MBC against six MRSA strains (variants of C58/C59, pH, DMSO); format: cell-based, Staphylococcus aureus
Protocol: Six MRSA strains, USA300, 0606, 0608, 0634, 0641, and 0646 were chosen based on their activity against biaryl compounds and vancomycin to determine structure-activity relationship of biaryl compounds. The effect of phenolic group on the activity of biaryl compounds was tested by modifying C59. First, the phenolic group was protected by acetylation to yield an acetylated C59 (C59-2) (FIG. 7B). Additional variants of C59, in the form of sodium and lithium salts were synthesized by incubation with sodium hydroxide and lithium hydroxide (FIGS. 7C and 7D). Antimicrobial activity of these deprotonated, water-soluble sodium (C59Na) and lithium (C59Li) salts, and acetylated derivative of C59 was tested against 6 MRSA strains and compared to the parent compound, C59 (FIGS. 8A-8D). Results from this comparative experiment indicate the contribution of phenolic group/phenoxide ion to the antimicrobial activity.
Further investigation into activity of these compounds under acidic pH conditions also points towards the role of phenolic group. An effective antimicrobial should be active under a wide range of pH conditions, including the physiological pH of 7.4. Localized pH in an infection is often lower than the physiological pH, and may be as low as 5.5 (Radovic-Moreno et al., 2012). Additionally, pH varies among organs (Radovic-Moreno et al., 2012). For example, pH in the bladder or on the skin is found to be between 4.5 and 8.0, or 4.0 and 5.5, respectively (Radovic-Moreno et al., 2012). […] The activity of all biaryl compounds is enhanced by at least four- to eight-fold with reduction in pH from 7.4 to 5.5.
Water soluble sodium and lithium salts of C59 (C59Na and C59Li) and their antimicrobial activity against six MRSA strains are reported above. A sodium salt of C58 (C58Na) was prepared and evaluated efficacy of this compound against these six MRSA strains. […] The poor activity of C58Na may be a result of poor stability of C58Na compared with C59Na and C59Li.

[16] = tested on: human lung airway epithelial cells (16HBE); conditions: 24-h incubation, non-linear curve fit
Protocol: as §2
Next, the toxicity of lead candidates was tested against human lung airway epithelial cells (16HBE) and human dermal fibroblasts (HDF) using an alamarBlue® Cell Viability Assay.

[17] = tested on: MRSA strains USA300 and SALL06; assay: Kill kinetics with stationary-phase MRSA; format: cell-based, Staphylococcus aureus
[18] = tested on: seven S. pneumoniae strains; assay: MIC/MBC against panel of S. pneumoniae strains; format: cell-based; conditions: Streptococcus pneumoniae
Protocol: The activity of compounds against Gram-positive pathogens, S. pyogenes and S. pneumoniae, identified through the preliminary screen (FIG. 15) was evaluated against a panel of these pathogens.

[19] = tested on: MRSA strain USA300; assay: Kill kinetics with planktonic log-phase MRSA; format: cell-based, Staphylococcus aureus; conditions: log-phase USA300, 24 hours
[20] = Rhodococcus (subgen. Prescottella) equi, strain 701+
[21] = Rhodococcus (subgen. Prescottella) equi, strain 701−
[22] = Rhodococcus (subgen. Prescottella) equi, strain 703
[23] = Rhodococcus (subgen. Prescottella) equi, strain 5331
[24] = Enterococcus faecalis, strain 49532
[25] = Enterococcus faecalis, strain 51575

## O=C(Nc1ccc(Cl)c(Cl)c1)c1cc(Cl)cc(Cl)c1O [3,3′,4′,5-tetrachlorosalicylanilide, reference compound]
[1]; positive control, 100 nM
  membrane disruption (DiSC3(5) fluorescence): positive membrane disruption

## Oc1c(Br)cc(Br)cc1-c1cc(Br)cc(Br)c1O [C58, bromophene]
[2]
  H2122 LD50: 98 µM
[3]; 1 h
  onset of hemolysis: > 64 µg/mL
[3]; 18 h
  onset of hemolysis: 16 to 20 µg/mL
[4]
  MIC90: 2 µg/mL (≈ 3.99 µM)
  MBC: 4 µg/mL (≈ 7.97 µM)
[5]
  H460 LD50: 42 µM
[6]
  lowest concentration with reduction in bacterial growth rate: 0.125 ×MIC
[7]
  A549 LD50: 120 µM
[8]; six-hour incubation, SAD05 and 0632
  concentration that completely eradicates bacteria in a biofilm: 16 µg/mL
[9]
  H2073 LD50: 32 µM
[10]; [20]
  MBC: 4 µg/mL (≈ 7.97 µM)
  MIC: 1 µg/mL (≈ 1.99 µM)
[10]; [21]
  MBC: 8 µg/mL (≈ 15.9 µM)
  MIC: 1 µg/mL (≈ 1.99 µM)
[10]; [22]
  MBC: 8 µg/mL (≈ 15.9 µM)
  MIC: 0.5 µg/mL (≈ 0.996 µM)
[10]; [23]
  MBC: 4 µg/mL (≈ 7.97 µM)
  MIC: 1 µg/mL (≈ 1.99 µM)
[11]
  LD50 (inhibitory concentration at median cell survival): 60 µg/mL
[1]; 0.1 and 0.5 μg/mL
  membrane disruption (DiSC3(5) fluorescence): positive membrane disruption
[12]
  MIC90: 2 µg/mL (≈ 3.99 µM)
  MBC: 8 µg/mL (≈ 15.9 µM)
[13]; Enterococcus faecalis
  MBC: 12 µg/mL (≈ 23.9 µM)
  MIC: 6 µg/mL (≈ 12 µM)
[13]; strain 51575
  MBC: 12 µg/mL (≈ 23.9 µM)
  MIC: 6 µg/mL (≈ 12 µM)

## [Na+].[Na+].[O-]c1c(Cl)cc(Cl)cc1-c1cc(Cl)cc(Cl)c1[O-] [C59Na]
[14]
  lowest concentration with reduction in bacterial growth rate (lower OD650): 0.125 ×MIC
[15]
  activity in the absence of DMSO versus with 2.5% DMSO: at least comparable activity
  antimicrobial activity (MIC and MBC) compared to the parent compound: enhanced activity; also recorded: superior activity over C59
[16]
  16HBE LD50: 30 µg/mL
[10]; strain 701+
  MBC: 16 µg/mL
  MIC: 2 µg/mL
[10]; strain 701−
  MBC: 32 µg/mL
  MIC: 8 µg/mL
[10]; strain 703
  MBC: 8 µg/mL
  MIC: 1 µg/mL
[10]; strain 5331
  MBC: 8 µg/mL
  MIC: 2 µg/mL
[13]; strain 49532
  MBC: 24 µg/mL
  MIC: 12 µg/mL
[13]; strain 51575
  MBC: 24 µg/mL
  MIC: 12 µg/mL

## CN[C@H](CC(C)C)C(=O)N[C@H]1C(=O)N[C@@H](CC(N)=O)C(=O)N[C@H]2C(=O)N[C@H]3C(=O)N[C@H](C(=O)N[C@H](C(=O)O)c4cc(O)cc(O)c4-c4cc3ccc4O)[C@H](O)c3ccc(c(Cl)c3)Oc3cc2cc(c3O[C@@H]2O[C@H](CO)[C@@H](O)[C@H](O)[C@H]2O[C@H]2C[C@](C)(N)[C@H](O)[C@H](C)O2)Oc2ccc(cc2Cl)[C@H]1O [Vancomycin hydrochloride, reference compound]
[4]
  MIC90: 2 µg/mL
  MBC: 16 µg/mL
[15]; pH 7.4, 6.5, 5.5
  change of activity with reduction in pH from 7.4 to 5.5: does not exhibit any improvement
[17]; at 24 hours, 0.5-2.0
  bacterial counts versus untreated controls: no difference
[17]; stationary-phase USA300 and SALL06, up to 24 hours
  eradication of stationary-phase bacteria: fails to eradicate the bacterial burden completely
[8]; 6 hours
  activity against biofilm mode bacteria: Lack of activity
[18]; read-out: MBCs
  MBC: 0.25 to 0.5 µg/mL
[18]; read-out: MICs
  MIC: 0.25 to 0.5 µg/mL
[19]
  dose response of bacterial eradication: absence of dose response
[12]
  MIC90: 4 µg/mL
  MBC: 8 µg/mL
[13]; [24]
  MBC: > 512 µg/mL
  MIC: 1 µg/mL
[13]; [25]
  MBC: > 192 µg/mL
  MIC: 192 µg/mL
